Data taken from ChEMBL document CHEMBL3872259, “Synthesis, characterization, and in vitro SAR evaluation of N,N'-bis(arylmethyl)-C2-alkyl substituted imidazolium salts” (Bioorg Med Chem Lett, 2017).

Legend:
[1] = Antiproliferative activity against human HOP62 cells assessed as cell growth at 10 uM measured after 48 hrs by sulforhodamine B assay relative to control; format: functional; conditions: HOP-62, 48 h, read-out: Activity
[2] = Antiproliferative activity against human EKVX cells assessed as cell growth at 10 uM measured after 48 hrs by sulforhodamine B assay relative to control; format: functional; conditions: read-out: Activity
[3] = Antiproliferative activity against human A549/ATCC cells assessed as cell growth at 10 uM measured after 48 hrs by sulforhodamine B assay relative to control; format: functional; conditions: A549, 48 h, read-out: Activity
[4] = Antiproliferative activity against human NCI-H460 cells assessed as reduction in cell viability measured after 72 hrs by MTT assay; format: functional, cell-based; conditions: NCI-H460, 72 h; for CC50: read-out: LC50 (the source's name)
[5] = Antiproliferative activity against human NCI-H1975 cells assessed as reduction in cell viability measured after 72 hrs by MTT assay; format: functional, cell-based; conditions: NCI-H1975, 72 h
[6] = Antiproliferative activity against human HCC827 cells assessed as reduction in cell viability measured after 72 hrs by MTT assay; format: functional, cell-based; conditions: HCC827, 72 h
[7] = Antiproliferative activity against human A549 cells assessed as reduction in cell viability measured after 72 hrs by MTT assay; format: functional, cell-based; conditions: A549, 72 h
[8] = Aqueous solubility of the compound; format: physicochemical; conditions: buffer
[9] = Antiproliferative activity against human HOP92 cells assessed as cell growth at 10 uM measured after 48 hrs by sulforhodamine B assay relative to control; format: functional; conditions: HOP-92, 48 h, read-out: Activity
[10] = Antiproliferative activity against human NCI-H226 cells assessed as cell growth at 10 uM measured after 48 hrs by sulforhodamine B assay relative to control; format: functional; conditions: NCI-H226, 48 h, read-out: Activity
[11] = Antiproliferative activity against human NCI-H23 cells assessed as cell growth at 10 uM measured after 48 hrs by sulforhodamine B assay relative to control; format: functional; conditions: NCI-H23, 48 h, read-out: Activity
[12] = Antiproliferative activity against human NCI-H322M cells assessed as cell growth at 10 uM measured after 48 hrs by sulforhodamine B assay relative to control; format: functional; conditions: read-out: Activity
[13] = Antiproliferative activity against human NCI-H460 cells assessed as cell growth at 10 uM measured after 48 hrs by sulforhodamine B assay relative to control; format: functional; conditions: NCI-H460, 48 h, read-out: Activity
[14] = Antiproliferative activity against human NCI-H522 cells assessed as cell growth at 10 uM measured after 48 hrs by sulforhodamine B assay relative to control; format: functional; conditions: NCI-H522, 48 h, read-out: Activity
[15] = Growth inhibition of human EKVX cells measured after 48 hrs by sulforhodamine B assay; format: functional; conditions: for CC50: read-out: LC50 (the source's name)
[16] = Growth inhibition of human HOP62 cells measured after 48 hrs by sulforhodamine B assay; format: functional; conditions: HOP-62, 48 h; for CC50: read-out: LC50 (the source's name)
[17] = Growth inhibition of human HOP92 cells measured after 48 hrs by sulforhodamine B assay; format: functional; conditions: HOP-92, 48 h; for CC50: read-out: LC50 (the source's name)
[18] = Growth inhibition of human NCI-H226 cells measured after 48 hrs by sulforhodamine B assay; format: functional; conditions: NCI-H226, 48 h; for CC50: read-out: LC50 (the source's name)
[19] = Growth inhibition of human NCI-H23 cells measured after 48 hrs by sulforhodamine B assay; format: functional; conditions: NCI-H23, 48 h; for CC50: read-out: LC50 (the source's name)
[20] = Growth inhibition of human NCI-H322M cells measured after 48 hrs by sulforhodamine B assay; format: functional; conditions: for CC50: read-out: LC50 (the source's name)
[21] = Growth inhibition of human NCI-H522 cells measured after 48 hrs by sulforhodamine B assay; format: functional; conditions: NCI-H522, 48 h

Cc1n(Cc2ccc3ccccc3n2)cc[n+]1Cc1ccc2ccccc2c1.[Br-]
growth at 10 µM [1]: 13.3%
growth at 10 µM [2]: 48.3%
growth at 10 µM [3]: 33.5%
GI50 [4]: 959 nM
IC50 [4]: 2 µM
TGI [4]: 14.4 µM
CC50 [4]: 47 µM
IC50 [5]: < 1000 nM
IC50 [6]: 9 µM
GI50 [7]: 1.31 µM
IC50 [7]: 3 µM
LC50 [7]: 43.5 µM
TGI [7]: 13.1 µM
solubility [8]: < 5 mM
growth at 10 µM [9]: -6.1%
growth at 10 µM [10]: 12.7%
growth at 10 µM [11]: 2.01%
growth at 10 µM [12]: 26%
growth at 10 µM [13]: 10.2%
growth at 10 µM [14]: 3.95%
GI50 [15]: 3.93 µM
TGI [15]: 27.6 µM
CC50 [15]: > 100 µM
GI50 [16]: 1530 nM
TGI [16]: 6.66 µM
CC50 [16]: 34.5 µM
GI50 [17]: 518 nM
TGI [17]: 3.81 µM
CC50 [17]: 27 µM
GI50 [18]: 1860 nM
TGI [18]: 10.9 µM
CC50 [18]: 47.5 µM
GI50 [19]: 1830 nM
TGI [19]: 13.4 µM
CC50 [19]: 62 µM
GI50 [20]: 3.27 µM
TGI [20]: 14.7 µM
CC50 [20]: 40.4 µM
GI50 [21]: 271 nM
LC50 (50% lethal concentration) [21]: 12.4 µM
TGI [21]: 1460 nM

CCc1n(Cc2ccc3ccccc3n2)cc[n+]1Cc1ccc2ccccc2n1.[Cl-]
growth at 10 µM [1]: 40.9%
growth at 10 µM [2]: 31.9%
growth at 10 µM [3]: 57.4%
GI50 [4]: 511 nM
IC50 [4]: 6 µM
TGI [4]: 11.9 µM
CC50 [4]: 45.7 µM
IC50 [5]: < 1000 nM
IC50 [6]: 9 µM
GI50 [7]: 5.27 µM
IC50 [7]: 11 µM
LC50 [7]: > 100 µM
TGI [7]: > 100 µM
solubility [8]: > 80 mM
growth at 10 µM [9]: -11.8%
growth at 10 µM [10]: 48.4%
growth at 10 µM [11]: 16%
growth at 10 µM [12]: 73.1%
growth at 10 µM [13]: 34.8%
growth at 10 µM [14]: -3.51%
GI50 [15]: 0.343 µM
TGI [15]: 41.5 µM
CC50 [15]: > 100 µM
GI50 [16]: 4660 nM
TGI [16]: 31.5 µM
CC50 [16]: > 100 µM
GI50 [17]: 18.3 nM
TGI [17]: 0.521 µM
CC50 [17]: 19.7 µM
GI50 [18]: 2560 nM
TGI [18]: 30.8 µM
CC50 [18]: > 100 µM
GI50 [19]: 275 nM
TGI [19]: 8.66 µM
CC50 [19]: > 100 µM
GI50 [20]: 6.33 µM
TGI [20]: 41.9 µM
CC50 [20]: > 100 µM
GI50 [21]: 83.7 nM
LC50 (50% lethal concentration) [21]: 37.9 µM
TGI [21]: 1490 nM

CCCCc1n(Cc2ccc3ccccc3n2)cc[n+]1Cc1ccc2ccccc2n1.[Cl-]
growth at 10 µM [1]: 25.2%
growth at 10 µM [2]: 50.9%
growth at 10 µM [3]: 44.8%
GI50 [4]: 2170 nM
IC50 [4]: 5 µM
TGI [4]: 11.6 µM
CC50 [4]: 38.5 µM
IC50 [5]: < 1000 nM
IC50 [6]: 7 µM
GI50 [7]: 4.76 µM
IC50 [7]: 7 µM
LC50 [7]: 47.6 µM
TGI [7]: 18.5 µM
solubility [8]: > 80 mM
growth at 10 µM [9]: 4.31%
growth at 10 µM [10]: 26.7%
growth at 10 µM [11]: 4.77%
growth at 10 µM [12]: 41.4%
growth at 10 µM [13]: 16.5%
growth at 10 µM [14]: 10%
GI50 [15]: 4 µM
TGI [15]: 22 µM
CC50 [15]: 72.4 µM
GI50 [16]: 2800 nM
TGI [16]: 12 µM
CC50 [16]: 39.8 µM
GI50 [17]: 339 nM
TGI [17]: 3.36 µM
CC50 [17]: 20.1 µM
GI50 [18]: 2370 nM
TGI [18]: 13.6 µM
CC50 [18]: 60.3 µM
GI50 [19]: 480 nM
TGI [19]: 7.27 µM
CC50 [19]: 43.6 µM
GI50 [20]: 3.57 µM
TGI [20]: 16.3 µM
CC50 [20]: 42 µM
GI50 [21]: 435 nM
LC50 (50% lethal concentration) [21]: 32 µM
TGI [21]: 4190 nM
